Here are results for two molecules from article PMC5402281, “Functional, thermodynamics, structural and biological studies of in silico-identified inhibitors of Mycobacterium tuberculosis enoyl-ACP(CoA) reductase enzyme” (Scientific Reports, 2017).

Where “and” joins values, the source holds several entries; their conditions need not be identical. Identical values can stand only once. Like-named read-outs stand apart in the source and are kept apart here.

Data set [1] is described as follows: in vitro. It counts as cell-based, murine. As to conditions: mouse. The procedure: (§1) Cellular viability determination after incubation with the test compounds (Labio_16 and Labio_17) was performed essentially as described elsewhere. Briefly, Vero (and Hacat/RAW) cells were grown in DMEM media supplemented with 10% inactivated fetal bovine serum and 1% penicillin-streptomycin. The cells were maintained in culture bottles at 37 °C in humidified atmosphere with 5% CO2. Cells were seeded at 3 × 10^3 cells per well (for Hacat/RAW or Vero) in a 96-well microtiter plate and incubated for 24 hours to adhere. Medium was carefully aspirated and replaced with 90 μL DMEM, and 10 μL of stocks of the chemical compounds were added to a final concentration of 20 μM (DMSO 2.0%, v/v). After 72 h at 37 °C under 5% of CO2, the cultures were incubated with 3-(4,5-dimethylthiazol-2-yl)-2,5-diphenyltetrazolium bromide (MTT) (1 mg mL^−1) for 3 h. The formazan crystals were dried at room temperature for at least 24 h and dissolved in DMSO. The absorbance was measured at 595 nm (Spectra Max M2e, Molecular Devices, USA). The percentage of cell viability for treated groups was reported considering the control wells (DMSO 0.5%-treated) as 100% of cell viability: cell viability (%) = (absorbance of treated wells/absorbance of control wells) x 100. Data are expressed as mean of cell viability ± standard error of mean of three independent experiments performed in triplicate.

The target in the next data set is T1, MtInhA (Mycobacterium tuberculosis, UniProt P9WGR1).
T1 construct: made in house
Put plainly: MtInhA enzyme inhibition by steady-state kinetics (NADH oxidation at 340 nm). Format: biochemical. The note with it: for Ki: EI complex; for mode of inhibition with respect to NADH / mode of inhibition with respect to DD-CoA: Lineweaver-Burk plot. The method, then: In order to assess the relative potency of the compounds, inhibition studies were performed by steady-state kinetic studies using a UV-2550 UV/Visible spectrophotometer (Shimadzu^©), monitoring the NADH oxidation at 340 nm (εβ-NADH = […]), in the forward direction. Experiments were performed at 25 °C, in 100 mM Pipes pH 7.0 and were started with the addition of the 2.2 μM MtInhA to a total reaction volume of 500 μL, and monitoring the change in absorbance for 1 min. […] This is needed as IC50 and classical competitive, non-competitive and uncompetitive inhibition modes follow a rapid equilibrium process. Accordingly, MtInhA (2.2 μM) was pre-incubated with inhibitor (10 μM), aliquots were taken at different times and added to the reaction mixture containing NADH (60 μM) and DD-CoA (45 μM), and initial velocity measurements were plotted as a function of time of pre-incubation[6]. Control experiments were carried out pre-incubating MtInhA (2.2 μM) with DMSO (5%) in the absence of inhibitors, and initial velocity measured as a function of time of pre-incubation[6].
The IC50 value, which defines the concentration of inhibitor required to […], was calculated for each compound. The maximal rate for the enzyme reaction was determined in the absence of inhibitor, in the presence of fixed non-saturating concentration of NADH (60 μM ≅ Km) and DD-CoA (45 μM ≅ Km)[10][11][14]. The reaction velocity was analyzed as the percentage of inhibition as a function of inhibitor concentration and data were fitted to Eq 1.
The most promising compounds were further evaluated to assess the inhibition profile and to determine the inhibition constant (Ki). Initial rates were measured as a function of NADH concentration (10–160 μM) at fixed non-saturating DD-CoA concentration (45 μM) and fixed-varied inhibitor concentrations (0.5–120 μM). The Ki values towards NADH were calculated using the uncompetitive equation (Eq. 2) for compounds Labio_6 and Labio_16, in which [I] is the inhibitor concentration, [S] is the substrate concentration, Km and Vmax are, respectively, the Michaelis-Menten constant and maximum velocity, and Kii is the overall inhibition constant for the ESI complex. The Ki of Labio_03 was determined previously.
For compounds Labio_2, Labio_11, Labio_15 and Labio_17, the Ki values with respect to NADH were calculated using Eq. 3, which describes a non-competitive inhibition, where [I] is the inhibitor concentration, [S] is the substrate concentration, Km and Vmax are, respectively, the Michaelis-Menten constant and maximum velocity, Kii is the overall inhibition constant for the ESI complex and Kis is the overall inhibition constant for the EI complex.
Inhibition studies were also carried out in the presence of fixed non-saturating concentration of NADH (60 μM) and fixed-varied inhibitor concentrations (0.5–120 μM), when DD-CoA was the variable substrate (15–135 μM). For compounds Labio_2, Labio_6, and Labio_16, the inhibition constants for the DD-CoA substrate were determined using Eq. 3 for the non-competitive mode of inhibition. For compounds Labio_11, Labio_15 and Labio_17, the Ki for this substrate were calculated from data fitting to the equation for competitive inhibition (Eq. 4), in which [I] is the inhibitor concentration, [S] is the substrate concentration, Km and Vmax are, respectively, the Michaelis-Menten constant and maximum velocity, and Kis is the overall inhibition constant for the EI complex.

A further data set relates to M. tuberculosis H37Rv. The data set can be described thus: microbe, parasite or virus in culture. Format: cell-based. The note with it: Mycobacterium tuberculosis.
Data set [2] in a line: in vitro. It counts as cell-based. The method, then: as §1
The test system of the next data set is Zebrafish embryos. The note with it: zebrafish (Danio rerio). The method, then: An HPLC equipped with a quaternary pump, DAD detector, degasser, column oven and an automatic injection system was used in this set of experiments (Thermo® Scientific, Sunnyvale, USA). Stock standard solutions (1 M) of Labio_16 and Labio_17 were prepared by diluting each standard in DMSO. Standard solutions were prepared by diluting the stock solution in fish water, yielding final concentrations of 0.625, 1.25, 2.50, 5.0 and 10.0 μM for Labio_16; and 0.625, 1.25, 2.50, 5.0, 10.0 and 20 μM for Labio_17 in a final volume of 0.5 mL.
Chromatographic separations were carried out using a Nucleodur C-18 column at 20 °C. The mobile phase was a 20:80% mixture of 0.1% glacial acetic acid and acetonitrile:methanol 1:1 (v/v) for Labio_16, and a mixture of 20:80% of 20 mM of ammonium acetate and acetonitrile:methanol 1:1 (v/v) for Labio_17. A flow rate of 1.5 mL min^−1 was employed in isocratic mode, with run time of 7 minutes for Labio_16 and 12 minutes for Labio_17. The DAD detector was set at 300 nm and a full scan was continuously performed. The calibration curve for both analytes presented a correlation coefficient above 0.99.

The target in data set [3] is T2, MtInhA:NADH binary complex (Mycobacterium tuberculosis, UniProt P9WGR1).
T2 construct: made in house
Put plainly: biochemical. The note with it: for ΔG: estimated from ΔH and ΔS (Eq. 7); for ΔH / ΔS: van't Hoff analysis, 15–30 °C. It counts as binding.

Where [4] appears, read: Ki DD-CoA Kis, varied DD-CoA 15–135 μM, fixed NADH 60 μM.
Where [5] appears, read: varied NADH 10–160 μM, fixed DD-CoA 45 μM, ESI complex.
[6] abbreviates: 216 h, 7 days + 48 h resazurin, read-out: MIC H37Rv.
Setting [7] is: conversion of μg mL^−1 value, read-out: MIC H37Rv converted to.

T1 sequence (P9WGR1 whole entry, looked up): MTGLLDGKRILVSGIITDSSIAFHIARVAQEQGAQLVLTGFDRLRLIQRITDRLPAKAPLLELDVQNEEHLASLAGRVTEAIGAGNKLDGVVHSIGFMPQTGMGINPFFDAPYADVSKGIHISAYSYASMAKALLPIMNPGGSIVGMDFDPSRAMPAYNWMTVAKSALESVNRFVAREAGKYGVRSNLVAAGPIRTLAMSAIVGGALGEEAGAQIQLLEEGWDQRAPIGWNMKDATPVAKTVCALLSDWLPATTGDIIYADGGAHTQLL
T2 sequence (P9WGR1 whole entry, looked up, one chain of several): as the sequence (P9WGR1 whole entry, looked up) above

On to `Cc1ccccc1OCc1nc(-c2ccc(NC(=O)c3cccs3)cc2)no1` [Labio_16], for which the viability at 72 h, 20 µM stood at 91 ± 1% in the data set “in vitro [1]”, 89 ± 12% in the data set “in vitro [2]” (African green monkey) and 104 ± 12% in the data set “in vitro [2]” (human). Moreover, on MtInhA, inhibition was half-maximal at 24 ± 2 µM (IC50). This molecule had a Ki on MtInhA (setting [4]) of 13 ± 1 µM. In addition, the “mode of inhibition with respect to NADH” value at MtInhA (fixed DD-CoA 45 μM) is recorded as “uncompetitive”. The “mode of inhibition with respect to DD-CoA” value at MtInhA (fixed NADH 60 μM) was “non-competitive”. For the same molecule, the “Ki DD-CoA Kii” value on MtInhA (varied DD-CoA 15–135 μM, fixed NADH 60 μM, ESI complex) was found to be 8 ± 3 µM. Moreover, on MtInhA (setting [5]), the “Ki NADH Kii” value turned out to be 7 ± 1 µM. In addition, the MIC in the data set on M. tuberculosis H37Rv (setting [6]) came out at 2.5 µg/mL; in the data set on M. tuberculosis H37Rv (setting [7]), 6.4 µM. Further, in the data set on Zebrafish embryos, the “decrease of compound in in vivo assay medium” value stood at 55 ± 2%. For the same molecule, the Kd in data set [3] (15 °C) was determined as 0.9 ± 0.2 µM; in data set [3] (20 °C) it was 1.2 ± 0.1 µM; in data set [3] (25 °C (298.15 K)), 1.5 ± 0.2 µM; in data set [3] (30 °C) it was 2 ± 0.1 µM. Further, the ΔG in data set [3] was -8.0 kcal/mol and -8.0 ± 3.6 kcal/mol. Further, the ΔH in data set [3] was -9.4 kcal/mol and -9.4 ± 06 kcal/mol. Also, the ΔS in data set [3] is −4.8 cal.mol^−1.K^−1 and −4.8 ± 2.2 cal.mol^−1.K^−1.
Turning to `CCOC(=O)c1ccc2nc(C)cc(Nc3ccc(N4CCCCC4)cc3)c2c1` [Labio_17], the viability at 72 h, 20 µM in “in vitro [1]” was found to be 98 ± 2%; in “in vitro [2]” (African green monkey), 85 ± 8%; in “in vitro [2]” (human), 84 ± 14%. This molecule also came in with an IC50 at MtInhA of 20 ± 3 µM. The Ki amounted to 6.3 ± 0.7 µM at MtInhA (setting [4]) and 8 ± 3 µM on MtInhA (Ki NADH Kis, varied NADH 10–160 μM, fixed DD-CoA 45 μM). Further, on MtInhA (fixed DD-CoA 45 μM), the “mode of inhibition with respect to NADH” value is given as “non-competitive”. Further, the “mode of inhibition with respect to DD-CoA” value on MtInhA (fixed NADH 60 μM) is reported as “competitive”. Besides, the “Ki NADH Kii” value at MtInhA (setting [5]) amounted to 8 ± 1 µM. The figures for the MIC with M. tuberculosis H37Rv (setting [6]) and in the data set on M. tuberculosis H37Rv (setting [7]) were 5 µg/mL and 12.8 µM, respectively. The “decrease of compound in in vivo assay medium” value with Zebrafish embryos amounted to 55 ± 2%. The Kd in data set [3] (25 °C (298.15 K)) came to 7.2 ± 0.5 µM. Moreover, the ΔG in data set [3] is -7.1 ± 0.8 kcal/mol. In data set [3], this molecule had a ΔH of -23.3 ± 1.9 kcal/mol. In data set [3], the ΔS is −54.5 ± 6.5 cal.mol^−1.K^−1.
